Assay results reported in ChEMBL document CHEMBL1909046, “DrugMatrix in vitro pharmacology data”.

Key:
[1] = target: T1, Alpha-1B adrenergic receptor (Rattus norvegicus, UniProt P15823); test: DRUGMATRIX: Alpha-1B adrenergic receptor radioligand binding (ligand: prazosin); assay type: cell membranes, Wistar, Liver, Membrane; conditions: Not Active = under 50% inhibition at 10 µM
T1 sequence (P15823 whole entry): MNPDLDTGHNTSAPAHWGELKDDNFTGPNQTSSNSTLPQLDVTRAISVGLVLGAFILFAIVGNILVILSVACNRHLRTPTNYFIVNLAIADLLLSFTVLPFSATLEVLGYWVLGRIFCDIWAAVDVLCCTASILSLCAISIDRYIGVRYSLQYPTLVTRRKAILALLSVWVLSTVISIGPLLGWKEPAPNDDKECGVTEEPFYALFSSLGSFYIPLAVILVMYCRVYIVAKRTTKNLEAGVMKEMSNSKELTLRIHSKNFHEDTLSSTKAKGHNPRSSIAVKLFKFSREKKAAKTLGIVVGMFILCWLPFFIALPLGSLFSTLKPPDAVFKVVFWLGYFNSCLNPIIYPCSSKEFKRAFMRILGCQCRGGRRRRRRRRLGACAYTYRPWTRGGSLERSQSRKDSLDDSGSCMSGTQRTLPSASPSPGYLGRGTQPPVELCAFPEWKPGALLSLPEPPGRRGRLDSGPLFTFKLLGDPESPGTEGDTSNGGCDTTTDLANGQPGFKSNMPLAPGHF

[2] = DRUGMATRIX: ATPase, Na+/K+ enzyme inhibition (substrate: ATP); assay type: tissue-based, Sus scrofa, Heart; conditions: Not Active = under 50% inhibition at 10 µM
[3] = target: T2, Calcitonin receptor (Homo sapiens, UniProt P30988); assay type: cell membranes, Membrane; conditions: t47d; note: in other assays of this panel Not Active means under 50% inhibition at 10 µM
T2 sequence (P30988 whole entry): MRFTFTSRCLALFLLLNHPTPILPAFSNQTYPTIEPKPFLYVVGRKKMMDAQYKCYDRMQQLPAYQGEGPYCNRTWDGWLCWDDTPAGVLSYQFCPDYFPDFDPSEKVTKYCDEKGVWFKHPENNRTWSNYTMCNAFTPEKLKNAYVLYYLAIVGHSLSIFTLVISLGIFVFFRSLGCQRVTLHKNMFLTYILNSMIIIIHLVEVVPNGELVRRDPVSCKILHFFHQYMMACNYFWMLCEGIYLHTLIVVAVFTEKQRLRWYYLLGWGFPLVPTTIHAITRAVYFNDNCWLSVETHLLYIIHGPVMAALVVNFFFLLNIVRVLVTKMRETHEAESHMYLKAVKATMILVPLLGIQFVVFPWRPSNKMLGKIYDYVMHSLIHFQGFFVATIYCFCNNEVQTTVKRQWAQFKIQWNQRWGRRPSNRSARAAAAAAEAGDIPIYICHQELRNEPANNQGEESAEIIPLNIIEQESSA

[4] = DRUGMATRIX: Calcium Channel Type L, Dihydropyridine radioligand binding (ligand: [3H] Nitrendipine); assay type: cell membranes, Rattus norvegicus, Wistar, Cerebral cortex, Membrane; conditions: Not Active = under 50% inhibition at 10 µM
[5] = target: T3, 5-hydroxytryptamine receptor 2C (Homo sapiens, UniProt P28335); test: DRUGMATRIX: Serotonin (5-Hydroxytryptamine) 5-HT2C radioligand binding (ligand: [3H] Mesulergine); assay type: cell membranes, CHO-K1, Membrane; conditions: cho-k1; Not Active = under 50% inhibition at 10 µM
T3 sequence (P28335 whole entry): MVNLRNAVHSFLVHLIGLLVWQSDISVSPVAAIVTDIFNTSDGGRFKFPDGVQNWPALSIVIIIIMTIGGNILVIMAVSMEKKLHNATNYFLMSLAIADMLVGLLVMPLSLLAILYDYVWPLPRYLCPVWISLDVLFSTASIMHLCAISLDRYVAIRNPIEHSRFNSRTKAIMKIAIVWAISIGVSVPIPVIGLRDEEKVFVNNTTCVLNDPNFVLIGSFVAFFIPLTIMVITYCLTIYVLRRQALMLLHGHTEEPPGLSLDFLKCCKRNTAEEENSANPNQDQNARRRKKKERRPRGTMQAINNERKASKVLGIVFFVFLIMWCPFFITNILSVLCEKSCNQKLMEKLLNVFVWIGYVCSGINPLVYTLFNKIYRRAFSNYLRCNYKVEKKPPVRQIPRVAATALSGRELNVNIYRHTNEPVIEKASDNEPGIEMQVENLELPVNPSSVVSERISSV

[6] = target: Sigma non-opioid intracellular receptor 1 (Homo sapiens, UniProt Q99720); test: DRUGMATRIX: Sigma1 radioligand binding (ligand: [3H] Haloperidol); assay type: cell membranes, Jurkat, Membrane; conditions: jurkat; Not Active = under 50% inhibition at 10 µM
Chain of Sigma non-opioid intracellular receptor 1 (Q99720 whole entry): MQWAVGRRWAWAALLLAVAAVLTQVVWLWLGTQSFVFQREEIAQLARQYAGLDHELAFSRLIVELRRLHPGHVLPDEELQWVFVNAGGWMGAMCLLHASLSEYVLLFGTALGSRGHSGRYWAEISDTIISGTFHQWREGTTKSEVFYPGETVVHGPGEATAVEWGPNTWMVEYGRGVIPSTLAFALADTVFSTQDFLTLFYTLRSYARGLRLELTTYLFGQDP

[7] = DRUGMATRIX: Tumor Necrosis Factor (TNF), Non-Selective radioligand binding (ligand: [125I] TNF-alpha); assay type: cell membranes, Membrane; conditions: u-937; Not Active = under 50% inhibition at 10 µM
[8] = DRUGMATRIX: Calcium Channel Type L, Phenylalkylamine radioligand binding (ligand: [3H] (-)-Desmethoxyverapamil (D-888)); assay type: cell membranes, Rattus norvegicus, Wistar, Brain, Membrane; conditions: Not Active = under 50% inhibition at 10 µM
[9] = DRUGMATRIX: GABAA, Muscimol, Central radioligand binding (ligand: [3H] Muscimol); assay type: cell membranes, Rattus norvegicus, Wistar, Brain, Membrane; conditions: Not Active = under 50% inhibition at 10 µM
[10] = DRUGMATRIX: Phorbol Ester radioligand binding (ligand: [3H] PDBu); assay type: cell membranes, Mus musculus, ICR, Brain, Membrane; conditions: Not Active = under 50% inhibition at 10 µM
[11] = target: Matrix metalloproteinase-9 (Homo sapiens, UniProt P14780); assay type: cell-based;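 note: inhibition of isolated MMP-9 enzyme activity toward a synthetic peptide substrate, from the DrugMatrix protease screening panel; in other assays of this panel Not Active means under 50% inhibition at 10 µM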
Chain of Matrix metalloproteinase-9 (P14780 whole entry): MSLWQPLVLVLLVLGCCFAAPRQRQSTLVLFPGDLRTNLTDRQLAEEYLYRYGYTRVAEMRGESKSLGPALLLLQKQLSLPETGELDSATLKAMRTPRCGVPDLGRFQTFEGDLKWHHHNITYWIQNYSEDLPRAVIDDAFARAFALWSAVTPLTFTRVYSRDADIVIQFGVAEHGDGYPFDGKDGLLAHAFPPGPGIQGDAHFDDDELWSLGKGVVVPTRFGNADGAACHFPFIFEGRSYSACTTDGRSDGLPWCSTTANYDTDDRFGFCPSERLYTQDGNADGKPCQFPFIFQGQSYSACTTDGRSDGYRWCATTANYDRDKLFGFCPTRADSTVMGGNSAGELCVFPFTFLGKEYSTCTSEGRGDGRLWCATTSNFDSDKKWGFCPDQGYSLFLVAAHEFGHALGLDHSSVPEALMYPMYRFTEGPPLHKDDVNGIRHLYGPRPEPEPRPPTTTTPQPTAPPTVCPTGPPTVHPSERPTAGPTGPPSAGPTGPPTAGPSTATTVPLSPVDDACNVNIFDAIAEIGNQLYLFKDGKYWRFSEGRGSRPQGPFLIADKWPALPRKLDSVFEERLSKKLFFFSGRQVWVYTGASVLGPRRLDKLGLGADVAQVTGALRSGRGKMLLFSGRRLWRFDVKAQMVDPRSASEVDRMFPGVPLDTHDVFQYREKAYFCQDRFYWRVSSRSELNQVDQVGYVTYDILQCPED

[12] = target: T4, Adenosine receptor A3 (Homo sapiens, UniProt P0DMS8); assay type: cell membranes, CHO-K1, Membrane; conditions: cho-k1;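 note: radioligand binding assay with AB-MECA serving as the labeled ligand; in other assays of this panel Not Active means under 50% inhibition at 10 µM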
T4 sequence (P0DMS8 whole entry): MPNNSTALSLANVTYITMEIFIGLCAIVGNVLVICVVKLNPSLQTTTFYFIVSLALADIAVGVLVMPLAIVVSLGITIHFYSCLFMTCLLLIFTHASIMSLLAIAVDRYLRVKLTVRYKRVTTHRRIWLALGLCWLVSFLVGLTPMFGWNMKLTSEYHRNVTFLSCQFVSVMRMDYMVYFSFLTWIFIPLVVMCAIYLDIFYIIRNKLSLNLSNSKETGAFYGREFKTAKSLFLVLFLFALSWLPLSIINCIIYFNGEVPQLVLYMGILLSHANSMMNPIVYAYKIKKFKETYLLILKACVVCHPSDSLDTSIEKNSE

[13] = target: Cytochrome P450 2C9 (Homo sapiens, UniProt P11712); conditions: bti-tn-5b1-4; note: in other assays of this panel Not Active means under 50% inhibition at 10 µM
Chain of Cytochrome P450 2C9 (P11712 whole entry): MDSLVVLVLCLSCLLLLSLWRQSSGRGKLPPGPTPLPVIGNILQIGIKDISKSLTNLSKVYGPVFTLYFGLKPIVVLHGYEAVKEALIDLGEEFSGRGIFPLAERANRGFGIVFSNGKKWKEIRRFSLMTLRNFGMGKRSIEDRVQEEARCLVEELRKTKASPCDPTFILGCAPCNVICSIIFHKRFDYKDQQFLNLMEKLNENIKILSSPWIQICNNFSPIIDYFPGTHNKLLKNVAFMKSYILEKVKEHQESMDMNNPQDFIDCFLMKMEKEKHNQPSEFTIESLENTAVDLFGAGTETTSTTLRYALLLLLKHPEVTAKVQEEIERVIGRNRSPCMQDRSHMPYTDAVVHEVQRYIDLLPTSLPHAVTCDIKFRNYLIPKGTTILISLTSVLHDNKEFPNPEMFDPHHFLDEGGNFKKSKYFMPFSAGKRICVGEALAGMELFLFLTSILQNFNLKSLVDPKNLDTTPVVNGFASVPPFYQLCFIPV

[14] = target: Cytochrome P450 2D6 (Homo sapiens, UniProt P10635); conditions: bti-tn-5b1-4; note: in other assays of this panel Not Active means under 50% inhibition at 10 µM
Chain of Cytochrome P450 2D6 (P10635 whole entry): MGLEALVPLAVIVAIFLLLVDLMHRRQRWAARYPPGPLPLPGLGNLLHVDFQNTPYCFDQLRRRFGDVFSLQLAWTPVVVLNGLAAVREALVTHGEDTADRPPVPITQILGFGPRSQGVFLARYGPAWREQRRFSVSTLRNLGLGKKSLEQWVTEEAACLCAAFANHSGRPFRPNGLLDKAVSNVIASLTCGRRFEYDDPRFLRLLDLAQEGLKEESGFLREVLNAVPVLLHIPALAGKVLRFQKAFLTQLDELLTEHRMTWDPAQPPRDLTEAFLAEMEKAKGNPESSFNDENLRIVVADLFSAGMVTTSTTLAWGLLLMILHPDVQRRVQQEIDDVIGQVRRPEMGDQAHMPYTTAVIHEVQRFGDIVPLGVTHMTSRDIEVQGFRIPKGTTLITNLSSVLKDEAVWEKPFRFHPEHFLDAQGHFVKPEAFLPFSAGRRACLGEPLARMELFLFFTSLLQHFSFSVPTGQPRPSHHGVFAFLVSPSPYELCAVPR

O=C1NC(=O)C(c2ccccc2)(c2ccccc2)N1 [PHENYTOIN]
Not Active: IC50 [1] | IC50 [2] | Ki [2] | IC50 [3] | IC50 [4] | Ki [4] | IC50 [5] | IC50 [6] | IC50 [7] | Ki [7] | IC50 [8] | Ki [8] | IC50 [9] | Ki [9] | IC50 [10] | Ki [10] | IC50 [11] | IC50 [12] | IC50 [13] | Ki [13] | IC50 [14] | Ki [14]

C=C(C)[C@@H]1[C@H]2OC(=O)[C@@H]1[C@]1(O)C[C@H]3O[C@]34C(=O)O[C@H]2[C@]14C [PICROTOXININ]
Not Active: IC50 [1] | IC50 [2] | Ki [2] | IC50 [3] | IC50 [4] | Ki [4] | IC50 [5] | IC50 [6] | IC50 [7] | Ki [7] | IC50 [8] | Ki [8] | IC50 [9] | Ki [9] | IC50 [10] | Ki [10] | IC50 [11] | IC50 [12] | IC50 [13] | Ki [13] | IC50 [14] | Ki [14]

CN1C(C(=O)Nc2ccccn2)=C(O)c2ccccc2S1(=O)=O [PIROXICAM]
Not Active: IC50 [1] | IC50 [2] | Ki [2] | IC50 [3] | IC50 [4] | Ki [4] | IC50 [5] | IC50 [6] | IC50 [7] | Ki [7] | IC50 [8] | Ki [8] | IC50 [9] | Ki [9] | IC50 [10] | Ki [10] | IC50 [11] | IC50 [12] | IC50 [13] | Ki [13] | IC50 [14] | Ki [14]

CCC1(c2ccccc2)C(=O)NCNC1=O [PRIMIDONE]
Not Active: IC50 [1] | IC50 [2] | Ki [2] | IC50 [3] | IC50 [4] | Ki [4] | IC50 [5] | IC50 [6] | IC50 [7] | Ki [7] | IC50 [8] | Ki [8] | IC50 [9] | Ki [9] | IC50 [10] | Ki [10] | IC50 [11] | IC50 [12] | IC50 [13] | Ki [13] | IC50 [14] | Ki [14]

CCCc1cc(=O)[nH]c(=S)[nH]1 [PROPYLTHIOURACIL]
Not Active: IC50 [1] | IC50 [2] | Ki [2] | IC50 [3] | IC50 [4] | Ki [4] | IC50 [5] | IC50 [6] | IC50 [7] | Ki [7] | IC50 [8] | Ki [8] | IC50 [9] | Ki [9] | IC50 [10] | Ki [10] | IC50 [11] | IC50 [12] | IC50 [13] | Ki [13] | IC50 [14] | Ki [14]

CARBOPLATIN
Not Active: IC50 [1] | Ki [1] | IC50 [2] | Ki [2] | IC50 [3] | Ki [3] | IC50 [4] | Ki [4] | IC50 [5] | Ki [5] | IC50 [6] | Ki [6] | IC50 [7] | Ki [7] | IC50 [8] | Ki [8] | IC50 [9] | Ki [9] | IC50 [10] | Ki [10] | IC50 [11] | Ki [11] | IC50 [12] | Ki [12] | IC50 [13] | Ki [13] | IC50 [14] | Ki [14]

CISPLATIN
Not Active: IC50 [1] | Ki [1] | IC50 [3] | Ki [3] | IC50 [4] | Ki [4] | IC50 [5] | Ki [5] | IC50 [6] | Ki [6] | IC50 [7] | Ki [7] | IC50 [8] | Ki [8] | IC50 [9] | Ki [9] | IC50 [10] | Ki [10] | IC50 [11] | Ki [11] | IC50 [13] | Ki [13] | IC50 [14] | Ki [14]
9.43 µM: IC50 ([2]; read-out: IC50)
2.4 µM: Ki ([12]; read-out: Ki)
4.24 µM: IC50 ([12]; read-out: IC50)
